Non-standard residues stand in square brackets, D forms with d. Residues, ends and D or L forms follow the SMILES beside them. sY = N[C@@H](Cc1ccc(OS(=O)(=O)O)cc1)C(=O)O; pGlu = O=C1CC[C@@H](C(=O)O)N1
Key:
[1] = system: CBI-2-elicited feeding motor programs; assay: CBI-2-elicited feeding motor programs in isolated cerebral and buccal ganglia; parameters: species or system Aplysia californica; settings: for Feeding program effect, summary grade: Table S1 summary in words; for B8 activity (frequency) during retraction: 10^-6 M and 10^-5 M
Procedure: To explore the neural basis of the behavioral effects of apCCKs, we examined their modulation of feeding-motor programs in isolated ganglia. All eight forms of apCCKs were tested on programs induced by CBI-2, a command-like interneuron that is active during food-elicited feeding behavior[56] and provides potent excitatory inputs to buccal central pattern generator (CPG) interneurons,[54],[77] orchestrating ingestive motor programs (Figure S23A). Stable single-cycle motor programs were evoked by stimulating CBI-2 at 8–10 Hz throughout the protraction phase with a 90-s intertrial interval. Two concentrations, 10^−6 M and 10^−5 M, of apCCKs were tested.
(§1) Intracellular and extracellular recordings were made as described previously.[57]–[59],[61],[151] To prevent movements of ganglia caused by myoactive apCCK (especially [sY8]-apCCK1 and [sY6, sY8]-apCCK1) during bath application, we treated the ganglia with 0.8% protease IX for 1–2 min prior to desheathing. Subsequently, ganglia were desheathed, transferred to a recording chamber containing ~1.5 mL of ASW (460 mM NaCl, 10 mM KCl, 11mM CaCl2, 55 mM MgCl2, and 10 mM HEPES, pH 7.6), continuously perfused at 0.3 mL/min, and maintained at 14°C–17°C. The experiments examining the effects of apCCKs on excitability of B20/B34/B61/62/B65/B64 neurons were performed in a high divalent saline (368 mM NaCl, 8 mM KCl, 13.8 mM CaCl2, 115 mM MgCl2, and 10 mM HEPES, pH 7.6), which increases the spiking threshold of neurons and therefore curtails polysynaptic influences. Intracellular recordings were obtained using 5–10 MΩ sharp microelectrodes filled with an electrolyte (0.6 M K2SO4 plus 60 mM KCl). Extracellular recordings were acquired from polyethylene suction electrodes. Grass S88 and WPI Pulsemaster A300 stimulators were used to provide timing signals for intracellular and extracellular stimulation. To determine the effects of various forms of apCCKs on Aplysia feeding programs, we performed experiments with the cerebral and buccal ganglia. Freshly made apCCK solution in ASW was perfused into the recording chamber. Feeding-motor programs were elicited by stimulation of command-like neuron CBI-2 at 8–10 Hz or stimulation of the EN at 2 Hz, 3 ms, 15 V, and were monitored by bursting activity of the I2 nerve of the buccal ganglion.[58],[59],[61] Typically, we recorded from motor neuron B8, and one interneuron, e.g., B40 or B20. To determine effects of apCCKs on synaptic strength, we stimulated presynaptic neuron, CBI-2, B34 (plus 1 nA current) or B65 at 10 Hz for 2 s for several trials and waited 1 min between each trial. The stimulation duration for each trial was set at 2 s because this allows the expression of synaptic facilitation without evoking too many spikes. Typically, the amplitude of the last EPSP at each concentration of peptides was quantified unless otherwise stated.

[2] = system: Aplysia californica; assay: Feeding behavior (food intake) in intact animals after peptide injection; format: in vivo; settings: for Behavioral effect (food intake), summary grade: Table S1 summary in words; for Food intake (seaweed consumed in a single meal): food-deprived animals
Excerpt: To explore the role of apCCKs as satiety signals in mollusks, we examined their effects on food intake. […] The remaining four forms had no impact (Figure S9). Moreover, [sY6, sY8]-apCCK1 slowed food consumption (Figure 2E), which could stem, in part, from a shift from ingestive to egestive patterns as the meal progressed. [sY6, sY8]-apCCK1 also extended the duration to consume one strip of seaweed compared to controls (Figure 2F), further mimicking natural satiety.
Behavioral experiments were conducted in two batches, each using animals from separate shipments. In the first batch (Figure 2), animals were larger, with an average body weight of 93.3 ± 4.8 g, and were food-deprived for 7 days prior to testing. In the second batch (Figure S9), animals were smaller (average weight: 70.6 ± 4.0 g) and were food-deprived for 5 days to account for their reduced size. In each experiment, two weight-matched animals were housed in separate round net cages (17 cm diameter and 17 cm height) that were placed in a 500 L tank filled with circulating aerated ASW (14°C–16°C). To ensure that the animals were responsive to food, they were first pretested with a small piece of seaweed. After this pretest, in each pair, one animal was injected (into the hemocoel using a syringe needle) with apCCKs freshly dissolved in 1.5 mL ASW, whereas the other was injected with 1.5 mL of ASW. Three minutes later, the feeding session commenced. Animals were hand-fed seaweed (Shirako, Tokyo, Japan) cut in 1 × 10 cm strips, weighing ~0.1 g, increasing 10-fold when hydrated. This hand-feeding approach has been used in prior study of Aplysia feeding behavior.[146],[147] The consumed seaweed amount was converted to hydrated weight and normalized to the animal’s body weight. Each strip of seaweed was delivered to the mouth area with forceps. Feeding was terminated after 1 h or when animals stopped ingesting seaweed for 3 min.

[3] = system: B20, B40, B64, B34, B61/62, B65 neurons and CBI-2 synapses; assay: Electrophysiology: excitability and synaptic strength of identified feeding-circuit neurons; parameters: species or system Aplysia californica
Excerpt: To characterize apCCK mechanisms of action, we investigated their effects on synaptic and intrinsic plasticity of key circuit elements. […] However, [sY8]-apCCK1 decreased synaptic strength between CBI-2 and B40 (Figures S26C and S26D).
as §1

[4] = system: EN-elicited feeding motor programs; assay: EN-elicited egestive motor programs in isolated ganglia; parameters: species or system Aplysia californica; settings: EN stimulation at 2 Hz
Excerpt: Although protraction (B61/62) activity is inhibited by apCCKs during CBI-2-elicited programs, this might not be the case for the egestive motor programs elicited by EN stimulation, which could contribute positively to satiety. We therefore examined [sY8]-apCCK1 effects on B61/62 activity in EN-elicited egestive motor programs. […] This difference may be explained in part by effects on the interneuron B65, which is strongly active during EN programs but not during CBI-2 programs,[56],[81]–[83] whereas the opposite is true for B34.[54],[61] B65 elicits fast excitatory postsynaptic potentials (EPSPs) in B61/62.[81] [sY8]-apCCK1 increased B65 excitability (Figures 6M and 6N) and EPSPs from B65 to B61/62 (Figures 6O and 6P), which could account for the increase of B61/62 activity during EN programs.
Intracellular and extracellular recordings were made as described previously.[57]–[59],[61],[151] […] Feeding-motor programs were elicited by stimulation of command-like neuron CBI-2 at 8–10 Hz or stimulation of the EN at 2 Hz, 3 ms, 15 V, and were monitored by bursting activity of the I2 nerve of the buccal ganglion.[58],[59],[61] Typically, we recorded from motor neuron B8, and one interneuron, e.g., B40 or B20. […] Typically, the amplitude of the last EPSP at each concentration of peptides was quantified unless otherwise stated.

[5] = injection into hemocoel of apCCK solutions (10^-7 M or 10^-6 M) vs ASW
[6] = presynaptic stimulation 10 Hz for 2 s, last EPSP

CC(C)C[C@H](NC(=O)CNC(=O)[C@H](Cc1ccc(O)cc1)NC(=O)[C@H](CC(=O)O)NC(=O)[C@H](Cc1ccc(O)cc1)NC(=O)[C@H](CO)NC(=O)[C@H](Cc1c[nH]c2ccccc12)NC(=O)[C@H](C)NC(=O)CNC(=O)[C@@H]1CCC(=O)N1)C(=O)NCC(=O)NCC(=O)NCC(=O)N[C@@H](CCCNC(=N)N)C(=O)N[C@@H](Cc1ccccc1)C(N)=O [apCCK1] ([pGlu]GAWSYDYGLGGGRF-NH2)
Feeding program effect, summary grade [1]: No effect
Behavioral effect (food intake), summary grade [2]: No effect
Food intake (seaweed consumed in a single meal) [2, 5]: did not influence feeding

CC(C)C[C@H](NC(=O)CNC(=O)[C@H](Cc1ccc(O)cc1)NC(=O)[C@H](CC(=O)O)NC(=O)[C@H](Cc1ccc(OS(=O)(=O)O)cc1)NC(=O)[C@H](CO)NC(=O)[C@H](Cc1c[nH]c2ccccc12)NC(=O)[C@H](C)NC(=O)CNC(=O)[C@@H]1CCC(=O)N1)C(=O)NCC(=O)NCC(=O)NCC(=O)N[C@@H](CCCNC(=N)N)C(=O)N[C@@H](Cc1ccccc1)C(N)=O [[sY6]-apCCK1] ([pGlu]GAWS[sY]DYGLGGGRF-NH2)
Feeding program effect, summary grade [1]: No effect
Behavioral effect (food intake), summary grade [2]: No effect
Food intake (seaweed consumed in a single meal) [2, 5]: did not influence feeding

CC(C)C[C@H](NC(=O)CNC(=O)[C@H](Cc1ccc(OS(=O)(=O)O)cc1)NC(=O)[C@H](CC(=O)O)NC(=O)[C@H](Cc1ccc(O)cc1)NC(=O)[C@H](CO)NC(=O)[C@H](Cc1c[nH]c2ccccc12)NC(=O)[C@H](C)NC(=O)CNC(=O)[C@@H]1CCC(=O)N1)C(=O)NCC(=O)NCC(=O)NCC(=O)N[C@@H](CCCNC(=N)N)C(=O)N[C@@H](Cc1ccccc1)C(N)=O [[sY8]-apCCK1] ([pGlu]GAWSYD[sY]GLGGGRF-NH2)
B40 excitability [3]: enhanced
Synaptic strength between CBI-2 and B40 [3]: decreased
B20 excitability ([3]; 10^-6 M, high divalent saline): significantly enhanced
EPSPs from B65 to B61/62 ([3]; first EPSP of each stimulation trial): increased
B34 excitability ([3]; high divalent saline): enhanced
B61/62 excitability ([3]; high divalent saline): enhanced
B64 excitability ([3]; high divalent saline): enhanced
B65 excitability ([3]; high divalent saline): increased
B20 excitability ([3]; higher concentration (10^-5 M), high divalent saline): no significant effect
Synaptic strength between B34 and B61/62 [3, 6]: decreased
Synaptic strength between CBI-2 and B34 [3, 6]: decreased
Synaptic strength between CBI-2 and B61/62 [3, 6]: decreased
B20 firing frequency in CBI-2 programs ([1]; 10^-6 M): increased
Type of CBI-2-elicited motor program ([1]; 10^-6 M): shifted ingestive programs to egestive
B34 frequency in CBI-2 programs ([1]; 10^-6 M and 10^-5 M tested): decreased
B40 firing frequency in CBI-2 programs ([1]; 10^-6 M and 10^-5 M tested): decreased
B61/62 frequency in CBI-2 programs ([1]; 10^-6 M and 10^-5 M tested): decreased
Protraction duration of CBI-2 programs ([1]; 10^-6 M and 10^-5 M tested): shortened
Retraction duration of CBI-2 programs ([1]; 10^-6 M and 10^-5 M tested): shortened
B8 activity during protraction ([1]; CBI-2 programs, 10^-5 M): decreased
B8 activity during protraction ([1]; CBI-2 programs, 10^-6 M): significantly increased
B8 activity (frequency) during retraction ([1]; CBI-2 programs): significantly decreased
Firing frequency of the I2 nerve ([1]; CBI-2 programs, 10^-6 M and 10^-5 M tested): significantly decreased
Feeding program effect, summary grade [1]: Strongest
Behavioral effect (food intake), summary grade [2]: Strongest
Food intake (seaweed consumed in a single meal) ([2]; injection into hemocoel, 10^-8 M or 10^-7 M): completely inhibiting consumption
B61/62 firing frequency in EN-elicited programs [4]: increased

CC(C)C[C@H](NC(=O)CNC(=O)[C@H](Cc1ccc(OS(=O)(=O)O)cc1)NC(=O)[C@H](CC(=O)O)NC(=O)[C@H](Cc1ccc(OS(=O)(=O)O)cc1)NC(=O)[C@H](CO)NC(=O)[C@H](Cc1c[nH]c2ccccc12)NC(=O)[C@H](C)NC(=O)CNC(=O)[C@@H]1CCC(=O)N1)C(=O)NCC(=O)NCC(=O)NCC(=O)N[C@@H](CCCNC(=N)N)C(=O)N[C@@H](Cc1ccccc1)C(N)=O [[sY6, sY8]-apCCK1] ([pGlu]GAWS[sY]D[sY]GLGGGRF-NH2)
Protraction duration of CBI-2 programs ([1]; 10^-6 M and 10^-5 M tested): shortened
B8 activity (frequency) during retraction ([1]; CBI-2 programs): reduced
Feeding program effect, summary grade [1]: Strong
Behavioral effect (food intake), summary grade [2]: Strong
Time to consume one strip of seaweed (average of the first three strips) ([2]; injected with 10^-8 M, compared with control animals): took longer
Food intake (seaweed consumed in a single meal) [2, 5]: strongly reduced food intake
